Experimental data published in patent publication US12391676B2 (H. LEE MOFFITT CANCER CENTER AND RESEARCH INSTITUTE, INC., priority 2018, dated 2025).

These molecules were tested against BRD4 (Homo sapiens (Human), UniProt O60885) (assay: BRD4 DSF thermal shift (ΔTm)). Settings: Table 1.
Assay type: binding

| SMILES | DSF ΔTm [°C] |
| --- | --- |
| Cc1cnc(Nc2ccc(OCCN3CCCC3)c(F)c2)nc1Nc1cccc(NS(=O)(=O)C(C)(C)C)c1 | 12.6 ± 0.1 |
| CN1CCC(c2ccc(Nc3ncc(C(F)(F)F)c(Nc4ccc(Cl)c(NS(=O)(=O)C(C)(C)C)c4)n3)cc2F)CC1 | 10.4 ± 0.1 |
| Cc1cnc(Nc2ccc(OCCN3CCCC3)cc2)nc1Nc1ccc(Cl)c(NS(=O)(=O)C(C)(C)C)c1 | 12.9 ± 0.1 |
| Cc1cnc(Nc2ccc(C3CCN(C)CC3)c(F)c2)cc1Nc1ccc2c(c1)N(S(=O)(=O)C(C)(C)C)CC2 [drawing 16] | 8.9 ± 0.2 |
| CN1CCN(c2ccc(Nc3ncc(F)c(Nc4ccc(Cl)c(NS(=O)(=O)C(C)(C)C)c4)n3)cc2)CC1 | 9.6 ± 0.9 |
| Cc1cnc(Nc2ccc(OCCN3CCCC3)c(F)c2)nc1Nc1ccc(Cl)c(NS(=O)(=O)C(C)(C)C)c1 | 15.1 ± 0.1 |

Same assay, conditions: Table 2

| SMILES | BRD4 DSF (ΔTm) [°C] |
| --- | --- |
| Cc1cnc(Nc2ccc(OCCN3CCCC3)c(F)c2)nc1Nc1cc(NS(=O)(=O)C(C)(C)C)ncn1 [MA10-176, N-(6-((2-((3-fluoro-4-(2-(pyrrolidin-1-yl)ethoxy)phenyl)amino)-5-methylpyrimidin-4-yl)amino)pyrimidin-4-yl)-2-methylpropane-2-sulfonamide] | 1.4 |
| Cc1cnc(Nc2ccc(C3CCN(C)CC3)c(F)c2)cc1Nc1ccc2c(c1)N(S(=O)(=O)C(C)(C)C)CC2 [MA9-064, N4-(1-(Tert-butylsulfonyl)indolin-6-yl)-N2-(3-fluoro-4-(1-methylpiperidin-4-yl)phenyl)-5-methylpyridine-2,4-diamine] | 8.2 |
| CN1CCC(c2ccc(Nc3ncc(-c4cnn(C)c4)c(Nc4ccc(Cl)c(NS(=O)(=O)C(C)(C)C)c4)n3)cc2F)CC1 [PN1-145, N-(2-Chloro-5-((2-((3-fluoro-4-(1-methylpiperidin-4-yl)phenyl)amino)-5-(1-methyl-1H-pyrazol-4-yl)pyrimidin-4-yl)amino)phenyl)-2-methylpropane-2-sulfonamide] | 7.1 |
| Cc1cnc(Nc2cc(F)ncn2)nc1Nc1ccc(Cl)c(NS(=O)(=O)C(C)(C)C)c1 [PN2-064, N-(2-Chloro-5-((2-((6-fluoropyrimidin-4-yl)amino)-5-methylpyrimidin-4-yl)amino)phenyl)-2-methylpropane-2-sulfonamide] | 1.1 |
| Cc1cnc(Nc2ccc(C3CCN(C)CC3)c(F)c2)cc1Nc1cccc(NS(=O)(=O)C(C)(C)C)c1 [SY3-039, N-(3-((2-((3-Fluoro-4-(1-methylpiperidin-4-yl)phenyl)amino)-5-methylpyridin-4-yl)amino)phenyl)-2-methylpropane-2-sulfonamide] | 6.7 |
| CN1CCC(c2ccc(Nc3ncc(C#N)c(Nc4ccc(Cl)c(NS(=O)(=O)C(C)(C)C)c4)n3)cc2F)CC1 [PN1-138, N-(2-Chloro-5-((5-cyano-2-((3-fluoro-4-(1-methylpiperidin-4-yl)phenyl)amino)pyrimidin-4-yl)amino)phenyl)-2-methylpropane-2-sulfonamide] | 7.6 |
| Cc1cnc(Nc2ccc(C3CCN(C)CC3)c(F)c2)nc1Nc1ncc2ccn(S(=O)(=O)C(C)(C)C)c2n1 [MA11-003, N4-(7-(tert-butylsulfonyl)-7H-pyrrolo[2,3-d]pyrimidin-2-yl)-N2-(3-fluoro-4-(1-methylpiperidin-4-yl)phenyl)-5-methylpyrimidine-2,4-diamine] | 8.0 |
| CN1CCC(c2ccc(Nc3ncc([N+](=O)[O-])c(Nc4ccc(Cl)c(NS(=O)(=O)C(C)(C)C)c4)n3)cc2F)CC1 [PN1-132, N-(2-Chloro-5-((2-((3-fluoro-4-(1-methylpiperidin-4-yl)phenyl)amino)-5-nitropyrimidin-4-yl)amino)phenyl)-2-methylpropane-2-sulfonamide] | 12.8 |
| Cc1cnc(Nc2ccc(N3CCN(C)CC3)cn2)nc1Nc1ccc(Cl)c(NS(=O)(=O)C(C)(C)C)c1 [PN2-091, N-(2-Chloro-5-((5-methyl-2-((5-(4-methylpiperazin-1-yl)pyridin-2-yl)amino)pyrimidin-4-yl)amino)phenyl)-2-methylpropane-2-sulfonamide] | 11.5 |
| Cc1cnc(Nc2ccc(N3CCN(C)CC3)c(F)c2)cc1Nc1ccc2c(c1)N(S(=O)(=O)C(C)(C)C)CC2 [MA9-042, N^4-(1-(tert-Butylsulfonyl)indolin-6-yl)-N^2-(3-fluoro-4-(4-methylpiperazin-1-yl)phenyl)-5-methylpyridine-2,4-diamine] | 6.1 |
| Cc1cnc(Nc2cc(F)c(C3CCN(C)CC3)cn2)nc1Nc1cccc(NS(=O)(=O)C(C)(C)C)c1 [PN2-103, N-(3-((2-((4-Fluoro-5-(1-methylpiperidin-4-yl)pyridin-2-yl)amino)-5-methylpyrimidin-4-yl)amino)phenyl)-2-methylpropane-2-sulfonamide] | 12.4 |
| Cc1cnc(Nc2ccc(C3CCN(C)CC3)c(F)n2)nc1Nc1cc(NS(=O)(=O)C(C)(C)C)ncn1 [MA10-179, N-(6-((2-((6-fluoro-5-(1-methylpiperidin-4-yl)pyridin-2-yl)amino)-5-methylpyrimidin-4-yl)amino)pyrimidin-4-yl)-2-methylpropane-2-sulfonamide] | 1.4 |
| Cc1cnc(Nc2cc(F)c(C3CCN(C)CC3)cn2)nc1Nc1ccc2ccn(S(=O)(=O)C(C)(C)C)c2n1 [MA10-149, N4-(1-(tert-butylsulfonyl)-1H-pyrrolo[2,3-b]pyridin-6-yl)-N2-(4-fluoro-5-(1-methylpiperidin-4-yl)pyridin-2-yl)-5-methylpyrimidine-2,4-diamine] | 6.2 |
| Cc1cnc(Nc2ccc(C3CCN(C)CC3)c(F)c2)nc1Nc1ccc2ccn(S(=O)(=O)C(C)(C)C)c2n1 [MA10-148, N4-(1-(Tert-butylsulfonyl)-1H-pyrrolo[2,3b]pyridin-6-yl)-N2-(3-fluoro-4-(1-methylpiperidin-4-yl)phenyl)-5-methylpyrimidine-2,4-diamine] | 7.6 |
| Cc1cnc(Nc2ccc(C3CCN(C)CC3)c(F)c2)nc1Nc1cc(NS(=O)(=O)C(C)(C)C)ncn1 [MA10-174, N-(6-((2-((3-fluoro-4-(1-methylpiperidin-4-yl)phenyl)amino)-5-methylpyrimidin-4yl)amino)pyrimidin-4-yl)-2-methylpropane-2-sulfonamide] | 0.9 |
| Cc1cnc(Nc2ccc(C3CCN(C)CC3)cn2)nc1Nc1ccc(Cl)c(NS(=O)(=O)C(C)(C)C)c1 [PN2-081, N-(2-Chloro-5-((5-methyl-2-((5-(1-methylpiperidin-4-yl)pyridin-2-yl)amino)pyrimidin-4-yl)amino)phenyl)-2-methylpropane-2-sulfonamide] | 12.3 |
| Cc1cnc(Nc2cc(F)c(C3CCN(C)CC3)cn2)nc1Nc1cc(NS(=O)(=O)C(C)(C)C)ncn1 [MA10-178, N-(6-((2-((4-fluoro-5-(1-methylpiperidin-4-yl)pyridin-2-yl)amino)-5-methylpyrimidin-4-yl)amino)pyrimidin-4-yl)-2-methylpropane-2-sulfonamide] | 2.8 |
| Cc1cnc(Nc2cc(F)c(C3CCNCC3)cn2)nc1Nc1ccc(Cl)c(NS(=O)(=O)C(C)(C)C)c1.Cl [PN2-084, N-(2-Chloro-5-((2-((4-fluoro-5-(piperidin-4-yl)pyridin-2-yl)amino)-5-methylpyrimidin-4-yl)amino)phenyl)-2-methylpropane-2-sulfonamide hydrochloride] | 14.5 |
| Cc1cnc(Nc2ccc(OCCN3CCCC3)cc2)nc1Nc1cc(NS(=O)(=O)C(C)(C)C)ncn1 | 1.1 |
| Cc1cnc(Nc2cc(F)c(C3CCN(C)CC3)c(F)c2)nc1Nc1cc(NS(=O)(=O)C(C)(C)C)ncn1 [MA11-009, N-(6-((2-((3,5-difluoro-4-(1-methylpiperidin-4-yl)phenyl)amino)-5-methylpyrimidin-4-yl)amino)pyrimidin-4-yl)-2-methylpropane-2-sulfonamide] | 1.1 |
| Cc1cnc(Nc2ccc(C3CCN(C)CC3)cc2)cc1Nc1cccc(NS(=O)(=O)C(C)(C)C)c1 [SY3-030, 2-Methyl-N-(3-((5-methyl-2-((4-(1-methylpiperidin-4-yl)phenyl)amino)pyridin-4-yl)amino)phenyl)propane-2-sulfonamide] | 6.3 |

What follows are molecules tested on MM1.S cells (assay: Antiproliferative activity, MM1.S cells). Settings: Homo sapiens, Table 2, read-out: GI50 (MM1S).
Assay type: cell-based
Description: Cellular activity of promising compounds is assessed using MM.1S and MV4-11 AML cells using c-Myc levels as biomarker (6-12 hr treatment) and antiproliferative activity (48-72 hr treatment) as described (Ciceri et al., Dual kinase-bromodomain inhibitors for rationally designed polypharmacology. Nat Chem Biol 2014).

| SMILES | GI50 [µM] |
| --- | --- |
| Cc1cnc(Nc2ccc(C3CCN(C)CC3)c(F)c2)cc1Nc1ccc2c(c1)N(S(=O)(=O)C(C)(C)C)CC2 [MA9-064, N4-(1-(Tert-butylsulfonyl)indolin-6-yl)-N2-(3-fluoro-4-(1-methylpiperidin-4-yl)phenyl)-5-methylpyridine-2,4-diamine] | 1.6 |
| CN1CCC(c2ccc(Nc3ncc(-c4cnn(C)c4)c(Nc4ccc(Cl)c(NS(=O)(=O)C(C)(C)C)c4)n3)cc2F)CC1 [PN1-145, N-(2-Chloro-5-((2-((3-fluoro-4-(1-methylpiperidin-4-yl)phenyl)amino)-5-(1-methyl-1H-pyrazol-4-yl)pyrimidin-4-yl)amino)phenyl)-2-methylpropane-2-sulfonamide] | 0.22 |
| Cc1cnc(Nc2ccc(C3CCN(C)CC3)c(F)c2)cc1Nc1cccc(NS(=O)(=O)C(C)(C)C)c1 [SY3-039, N-(3-((2-((3-Fluoro-4-(1-methylpiperidin-4-yl)phenyl)amino)-5-methylpyridin-4-yl)amino)phenyl)-2-methylpropane-2-sulfonamide] | 1.6 |
| CN1CCC(c2ccc(Nc3ncc(C#N)c(Nc4ccc(Cl)c(NS(=O)(=O)C(C)(C)C)c4)n3)cc2F)CC1 [PN1-138, N-(2-Chloro-5-((5-cyano-2-((3-fluoro-4-(1-methylpiperidin-4-yl)phenyl)amino)pyrimidin-4-yl)amino)phenyl)-2-methylpropane-2-sulfonamide] | 0.89 |
| CN1CCC(c2ccc(Nc3ncc([N+](=O)[O-])c(Nc4ccc(Cl)c(NS(=O)(=O)C(C)(C)C)c4)n3)cc2F)CC1 [PN1-132, N-(2-Chloro-5-((2-((3-fluoro-4-(1-methylpiperidin-4-yl)phenyl)amino)-5-nitropyrimidin-4-yl)amino)phenyl)-2-methylpropane-2-sulfonamide] | 0.36 |
| Cc1cnc(Nc2ccc(N3CCN(C)CC3)c(F)c2)cc1Nc1ccc(Cl)c(NS(=O)(=O)C(C)(C)C)c1 [MA9-036, N-(2-Chloro-5-((2-((3-fluoro-4-(4-methylpiperazin-1-yl)phenyl)amino)-5-methylpyridin-4-yl)amino)phenyl)-2-methylpropane-2-sulfonamide] | 3.12 |
| Cc1cc(Nc2ncc(C)c(Nc3ccc(Cl)c(NS(=O)(=O)C(C)(C)C)c3)n2)c(F)cc1C1CCN(C)CC1 [PN1-119, N-(2-Chloro-5-((2-((2-fluoro-5-methyl-4-(1-methylpiperidin-4-yl)phenyl)amino)-5-methylpyrimidin-4-yl)amino)phenyl)-2-methylpropane-2-sulfonamide] | 0.39 |
| Cc1cnc(Nc2cc(F)c(N3CCN(C)CC3)c(F)c2)cc1Nc1ccc(Cl)c(NS(=O)(=O)C(C)(C)C)c1 [MA9-037, N-(2-Chloro-5-((2-((3,5-difluoro-4-(4-methylpiperazin-1-yl)phenyl)amino)-5-methylpyridin-4-yl)amino)phenyl)-2-methylpropane-2-sulfonamide·bisformate] | 2.83 |
